Source: ChEMBL document CHEMBL1201862, “PubChem BioAssay data set” (2004)
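All cell lines were grown in 96-well plates and treated with compound for 48 hours. The concentration for 50% growth inhibition is given as GI50.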 Active and inactive are the calls of the source. No stated cut-off is given here; in the data, active = GI50 up to about 1.1 µM and inactive = higher.

Legend:
Assay in all cases: NCI tumour cell line growth inhibition, 48 h
M14 = test system: M14
MOLT-4 = test system: MOLT-4
OVCAR-4 = test system: OVCAR-4
SNB-19 = test system: SNB-19
M19-MEL = test system: M19-MEL
DLD-1 = test system: DLD-1
SF-268 = test system: SF-268
TK-10 = test system: TK-10
DMS-273 = test system: DMS-273
UACC-257 = test system: UACC-257
KM12 = test system: KM12
NCI-H226 = test system: NCI-H226
SF-295 = test system: SF-295
HCC 2998 = test system: HCC 2998
NCI-H23 = test system: NCI-H23
HT-29 = test system: HT-29
NCI-H460 = test system: NCI-H460
UO-31 = test system: UO-31
ACHN = test system: ACHN
SK-MEL-28 = test system: SK-MEL-28
SW-620 = test system: SW-620
SN12C = test system: SN12C
RXF 631 = test system: RXF 631
OVCAR-5 = test system: OVCAR-5
SK-OV-3 = test system: SK-OV-3
SK-MEL-5 = test system: SK-MEL-5
K562 = test system: K562
SF-539 = test system: SF-539
LOX IMVI = test system: LOX IMVI
COLO 205 = test system: COLO 205
NCI-H522 = test system: NCI-H522
OVCAR-8 = test system: OVCAR-8
KM-20L2 = test system: KM-20L2
SNB-78 = test system: SNB-78
HOP-62 = test system: HOP-62
IGROV-1 = test system: IGROV-1
UACC-62 = test system: UACC-62
786-0 = test system: 786-0
SNB-75 = test system: SNB-75
HL-60 = test system: HL-60
RPMI-8226 = test system: RPMI-8226
SR = test system: SR
LXFL 529 = test system: LXFL 529
CCRF-CEM = test system: CCRF-CEM
RXF 393 = test system: RXF 393
HCT-116 = test system: HCT-116
HCT-15 = test system: HCT-15
U-251 = test system: U-251
OVCAR-3 = test system: OVCAR-3
Malme-3M = test system: Malme-3M
XF498 = test system: XF498
A549 = test system: A549
CAKI-1 = test system: CAKI-1
DMS-114 = test system: DMS-114
EKVX = test system: EKVX
SK-MEL-2 = test system: SK-MEL-2
A498 = test system: A498
HOP-92 = test system: HOP-92

Structure (SMILES): CN1C(=O)CCC1(O)C1C=CC=CC1 (configuration not stated)
- GI50 (M14): > 100 µM (inactive)
- GI50 (MOLT-4): > 100 µM (inactive)
- GI50 (OVCAR-4): > 100 µM (inactive)
- GI50 (SNB-19): > 100 µM (inactive)
- GI50 (M19-MEL): > 100 µM (inactive)
- GI50 (DLD-1): > 100 µM (inactive)
- GI50 (SF-268): > 100 µM (inactive)
- GI50 (TK-10): > 100 µM (inactive)
- GI50 (DMS-273): > 100 µM (inactive)
- GI50 (UACC-257): > 100 µM (inactive)
- GI50 (KM12): > 100 µM (inactive)
- GI50 (NCI-H226): > 100 µM (inactive)
- GI50 (SF-295): > 100 µM (inactive)
- GI50 (HCC 2998): > 100 µM (inactive)
- GI50 (NCI-H23): > 100 µM (inactive)
- GI50 (HT-29): > 100 µM (inactive)
- GI50 (NCI-H460): > 100 µM (inactive)
- GI50 (UO-31): > 100 µM (inactive)
- GI50 (ACHN): > 100 µM (inactive)
- GI50 (SK-MEL-28): > 100 µM (inactive)
- GI50 (SW-620): > 100 µM (inactive)
- GI50 (SN12C): > 100 µM (inactive)
- GI50 (RXF 631): > 100 µM (inactive)
- GI50 (OVCAR-5): > 100 µM (inactive)
- GI50 (SK-OV-3): > 100 µM (inactive)
- GI50 (SK-MEL-5): > 100 µM (inactive)
- GI50 (K562): > 100 µM (inactive)
- GI50 (SF-539): > 100 µM (inactive)
- GI50 (LOX IMVI): > 100 µM (inactive)
- GI50 (COLO 205): > 100 µM (inactive)
- GI50 (NCI-H522): > 100 µM (inactive)
- GI50 (OVCAR-8): > 100 µM (inactive)
- GI50 (KM-20L2): > 100 µM (inactive)
- GI50 (SNB-78): > 100 µM (inactive)
- GI50 (HOP-62): > 100 µM (inactive)
- GI50 (IGROV-1): > 100 µM (inactive)
- GI50 (UACC-62): > 100 µM (inactive)
- GI50 (786-0): > 100 µM (inactive)
- GI50 (SNB-75): > 100 µM (inactive)
- GI50 (HL-60): > 100 µM (inactive)
- GI50 (RPMI-8226): > 100 µM (inactive)
- GI50 (SR): > 100 µM (inactive)
- GI50 (LXFL 529): > 100 µM (inactive)
- GI50 (CCRF-CEM): > 100 µM (inactive)
- GI50 (RXF 393): > 100 µM (inactive)
- GI50 (HCT-116): > 100 µM (inactive)
- GI50 (HCT-15): > 100 µM
- GI50 (U-251): > 100 µM (inactive)
- GI50 (OVCAR-3): > 100 µM (inactive)
- GI50 (Malme-3M): > 100 µM (inactive)
- GI50 (XF498): > 100 µM (inactive)
- GI50 (A549): > 100 µM (inactive)
- GI50 (CAKI-1): > 100 µM (inactive)
- GI50 (DMS-114): > 100 µM (inactive)

Structure (SMILES): c1ccc2c(c1)[nH]c1c2nc2ncccn21
- GI50 (M14): > 100 µM (inactive)
- GI50 (MOLT-4): > 100 µM (inactive)
- GI50 (OVCAR-4): > 100 µM (inactive)
- GI50 (SNB-19): > 100 µM (inactive)
- GI50 (M19-MEL): > 100 µM (inactive)
- GI50 (DLD-1): > 100 µM (inactive)
- GI50 (SF-268): > 100 µM (inactive)
- GI50 (TK-10): > 100 µM (inactive)
- GI50 (DMS-273): > 100 µM (inactive)
- GI50 (UACC-257): > 100 µM (inactive)
- GI50 (KM12): > 100 µM (inactive)
- GI50 (NCI-H226): > 100 µM (inactive)
- GI50 (SF-295): > 100 µM (inactive)
- GI50 (HCC 2998): > 100 µM (inactive)
- GI50 (NCI-H23): > 100 µM (inactive)
- GI50 (HT-29): > 100 µM (inactive)
- GI50 (NCI-H460): > 100 µM (inactive)
- GI50 (UO-31): > 100 µM (inactive)
- GI50 (ACHN): > 100 µM (inactive)
- GI50 (SK-MEL-28): > 100 µM (inactive)
- GI50 (SW-620): > 100 µM (inactive)
- GI50 (SN12C): > 100 µM (inactive)
- GI50 (RXF 631): > 100 µM (inactive)
- GI50 (OVCAR-5): > 100 µM (inactive)
- GI50 (SK-OV-3): > 100 µM (inactive)
- GI50 (EKVX): > 100 µM (inactive)
- GI50 (SK-MEL-5): > 100 µM (inactive)
- GI50 (K562): > 100 µM (inactive)
- GI50 (SF-539): > 100 µM (inactive)
- GI50 (NCI-H522): > 100 µM (inactive)
- GI50 (OVCAR-8): > 100 µM (inactive)
- GI50 (SK-MEL-2): > 100 µM (inactive)
- GI50 (KM-20L2): > 100 µM (inactive)
- GI50 (SNB-78): > 100 µM (inactive)
- GI50 (HOP-62): > 100 µM (inactive)
- GI50 (IGROV-1): > 100 µM (inactive)
- GI50 (A498): > 100 µM (inactive)
- GI50 (UACC-62): > 100 µM (inactive)
- GI50 (786-0): > 100 µM (inactive)
- GI50 (SNB-75): > 100 µM (inactive)
- GI50 (HL-60): > 10 µM (inactive)
- GI50 (SR): > 100 µM (inactive)
- GI50 (LXFL 529): > 100 µM (inactive)
- GI50 (CCRF-CEM): > 100 µM (inactive)
- GI50 (RXF 393): > 100 µM (inactive)
- GI50 (HOP-92): > 100 µM (inactive)
- GI50 (HCT-116): > 100 µM (inactive)
- GI50 (U-251): > 100 µM (inactive)
- GI50 (Malme-3M): > 100 µM (inactive)
- GI50 (XF498): > 100 µM (inactive)
- GI50 (A549): > 100 µM (inactive)
- GI50 (CAKI-1): > 100 µM (inactive)
- GI50 (DMS-114): > 100 µM (inactive)
